Assay results published in patent US11660285B2, “Triptolide acrylate, preparation method therefor and use thereof” (GUANGDONG PROVINCIAL HOSPITAL OF TCM, priority 2019, dated 2023).

Legend:
[1] = system: LO2 cells; experiment: Cell toxicity experiment (LDH activity of culture supernatant); assay type: cell-based; details: normal liver cells, 0, 10, 50 and 100 nM, 24 h; FIG. 8
Method: 2.1 Cell Toxicity Experiment
Logarithmically growing LO2 cells were taken and inoculated in a 96-well plate at 1×10^4 cells per well. The cells treated with drugs with final concentrations of 0, 10, 50 and 100 nM were used respectively, the culture supernatant was collected after 24 h, and the LDH activity of the culture supernatant was detected by the Roche biochemical analyzer.

[2] = system: HepG2 liver cancer cells; experiment: Cell proliferation by MTT method, HepG2; assay type: cell-based; details: HepG2, 10, 25, 50, 100 nM, 24 h, FIG. 9
Method: (§1) 2.2 Detection of Cell Proliferation by MMT Method
(§2) When the liver cancer cells grew to the logarithmic phase, the single cell suspension was inoculated in a 96-well plate at 1×10^4 cells per well. A blank group was a DMEM medium containing 10% fetal bovine serum, a control group was a solvent-added control (DMSO) cell group, and an experimental group was a cell group treated with drugs with different final concentrations (10, 25, 50, 100 nM). After 24 h of treatment, the medium supernatant was carefully aspirated, and 100 μL of MTT solution with a final concentration of […] diluted with the medium was added to each well. After the cells were cultured for 4 h, the medium was discarded, 150 μL of DMSO solution was added to each well, and shaking was performed at a low speed on the shaker for 10 min in the dark. After the crystals were fully dissolved, the absorbance (A) of each well was detected at 490 nm with the microplate reader. Cell proliferation inhibition rate=[(control group A450-blank group A450)−(experimental group A450−blank group A450)/(control group A450−blank group A450)]×100%.

[3] = system: Hep3B liver cancer cells; experiment: Cell proliferation by MTT method, Hep3B; assay type: cell-based; details: Hep3B, 10, 25, 50, 100 nM, 24 h, FIG. 9
Method: as §1, §2

[4] = system: SMMC-7721 liver cancer cells; experiment: Cell proliferation by MTT method, SMMC-7721; assay type: cell-based; details: SMMC-7721, 10, 25, 50, 100 nM, 24 h, FIG. 9
Method: as §1, §2

[5] = system: BEL-7402 liver cancer cells; experiment: Cell proliferation by MTT method, BEL-7402; assay type: cell-based; details: BEL-7402, 10, 25, 50, 100 nM, 24 h, FIG. 9
Method: as §1, §2

[6] = system: Hep3B liver cancer cells; experiment: Cell apoptosis by flow cytometry, Hep3B; assay type: cell-based; details: Hep3B, 0, 50 and 100 nM, 24 h, FIG. 10 A
Method: (§3) 2.3 Detection of Cell Apoptosis by Flow Cytometry
(§4) Liver cancer cells in the logarithmic growth phase were taken and inoculated in a 12-well plate at 5×10^5 cells per well. The cells treated with triptolide acrylate (hereinafter referred to as TPO) and triptolide triol (hereinafter referred to as TP-3-OH) with final concentrations of 0, 50 and 100 nM were used. After 24 h of treatment, the cells were digested and collected with 0.25% EDTA-free pancreatin, washed twice with pre-cooled PBS, and resuspended with 300 μL 1× Binding Buffer. 5 μL FITC Annexin V and 5 μL PI were added to each tube of cell suspension and incubated at a room temperature for 5 min in the dark, and the flow cytometry was used for detection within 1 h.

[7] = system: BEL-7402 liver cancer cells; experiment: Cell apoptosis by flow cytometry, BEL-7402; assay type: cell-based; details: BEL-7402, 0, 50 and 100 nM, 24 h, FIG. 10 A
Method: as §3, §4

[8] = system: HepG2 subcutaneous implanted tumor (HepG2-Luc); experiment: Inhibition experiment on HepG2 subcutaneous implanted tumor in nude mice; assay type: in vivo
Method: 2.1 Establishment of Animal Models
Establishment of HepG2-Luc cell line stably expressing luciferase: HepG2 cells in the logarithmic growth phase were taken and placed into a 24-well plate at 1×10^5/well, and cultured overnight to make the cells fully adherent. An original medium was replaced with 2 mL of fresh medium containing 6 μg/mL polybrene, about 1×10^5 transfection units of recombinant lentiviral particles stably expressing luciferase were added, and after incubation was performed for 4 h at 37° C., 2 mL of fresh medium was added to dilute the polybrene. The culture was continued, and a virus-containing medium was replaced with a fresh medium. The culture was continued, a medium containing puromycin was replaced for resistance screening, drug-resistant clones were picked and screened for two weeks, and finally, a cell line HepG2-Luc stably expressing luciferase was obtained.
Construction of bear mice by HepG2-Luc cell line: the cryopreserved HepG2-Luc cells were recovered to a 100 cm^2 culture flask, cultured in vitro to the logarithmic growth phase and digested with 0.25% trypsin containing EDTA, the cells were collected and centrifuged at 1000 rpm for 3 min at a room temperature, the supernatant was discarded, the cells were washed with a serum-free DMEM medium, and the cell viability was detected by a trypan blue exclusion assay (only if the proportion of viable cells exceeded 95%, the experimental requirements were met). A small amount of the serum-free DMEM medium was added to resuspend the cells, and the cells were counted. […]
Detection of tumor growth by animal in-vivo imaging system: each nude mouse was intraperitoneally injected with 150 μL of 30 mg/kg […] substrate and observed for 15 min, the nude mouse was anesthetized with diethyl ether in an induction box for 5 min, the anesthetized nude mouse was quickly transferred into an observation box, the head of the nude mouse was aligned and fixed in a conical nasal plug, parameters were set for fluorescence imaging (if there was tumor growth, fluorescence signals with different intensities can be detected at the corresponding positions), after the imaging, the nude mouse was transferred into the induction box again, and an oxygen valve was turned on to revive the nude mouse.
18 random numbers were generated by Excel software, the random numbers were corresponding to the numbers of the nude mice, and the nude mice were equally divided into model groups according to the size of the random numbers, namely a low-dose group (100 μg/kg), a middle-dose group (200 μg/kg) and a high-dose group (400 μg/kg). After random grouping, the nude mice were weighed and the tumor volume was measured. […]

[9] = system: p53; experiment: Western blot of tumor tissue, p53; assay type: in vivo, nude mice; details: FIG. 7
Method: (§5) After the tumor tissue was thawed on ice, 50 mg of tumor tissue was taken into a tissue homogenization tube, and 500 μL of tissue lysate containing protease inhibitors and phosphatase inhibitors was added (usage of Roche brand tablets: 1 tablet/10 mL). After high-speed homogenization, centrifugation was performed at 12,000 rpm/min for 15 min, the supernatant was taken, and the protein concentration of the sample was measured by a BCA method. After the concentration of each sample was adjusted to the same, a protein loading buffer (5× Loading buffer) was added, denaturation was performed at 100° C. for 10 min, and preservation was performed at −80° C.
(§6) An appropriate brand of 10% pre-mixed polyacrylamide gel preparation solution was selected, and then, the gel (including separating gel and stacking gel) used in the experiment was prepared according to the instructions for use, which takes about 2 h. In the process of waiting for gel solidification, an SDS-PAGE gel electrophoresis solution was prepared in advance, the prepared gel was put in an electrophoresis tank, then the electrophoresis solution was added, and 10-30 μL of sample was added to each well of loading slot. After the sample runs through the stacking gel at a low pressure of 80 V, the voltage was adjusted to 100 V to make the sample run through the entire block of gel, so as to complete the SDS-PAGE gel electrophoresis operation. Secondly, a membrane transfer operation was performed (a PVDF membrane was pre-wetted in methanol for 5 min in advance), and membrane transfer conditions were: 300 mA, 120-150 min (corresponding to the time selection of the dividing line with a molecular weight of 100 kDa, wherein the selected membrane transfer time of the separated protein with a molecular weight less than 100 kDa was 120 min, and the selected membrane transfer time of the separated protein with a molecular weight greater than 100 kDa was 150 min). […] An ECL luminescent solution was used as a substrate to expose the target band, and the results were analyzed, recorded and counted.

[10] = system: caspase-8; experiment: Western blot of tumor tissue, caspase-8; assay type: in vivo, nude mice; details: FIG. 7
Method: as §5, §6

[11] = system: caspase-3; experiment: Western blot of tumor tissue, caspase-3; assay type: in vivo, nude mice; details: FIG. 7
Method: as §5, §6

[12] = system: Caspase-3; experiment: Apoptosis-related proteins by western blot, Caspase-3 in BEL-7402 cells; assay type: cell-based; details: BEL-7402 cells, 0, 50 and 100 nM, 24 h, FIG. 10 B
Method: (§7) 2.4 Detection of Apoptosis-Related Proteins by Western Blot
(§8) BEL-7402 cells in the logarithmic growth phase were taken and inoculated in a 12-well plate at 5×10^5 cells per well. The cells treated with TPO with final concentrations of 0, 50 and 100 nM were used. After 24 h of treatment, the cells were collected, then lysate was added, and total proteins were extracted after sufficient lysis on ice. After the protein concentration was measured by a BCA method, the Loading buffer was added and boiled at 100° C. for 10 min to fully denature the proteins. The denatured sample was subjected to SDS-PAGE gel electrophoresis and electrically transferred to a PVDF membrane. The transferred PVDF membrane was sealed with a 5% BSA solution in TBST at a room temperature for 1 h, then incubated overnight with the corresponding primary antibody at 4° C., washed with TBST, incubated with the secondary antibody at a room temperature for 2 h, and washed with TBST again.
(§9) Finally, an ECL chemiluminescent solution was added to make the membrane strip emit light, electrophoresis results were obtained by pressing, developing and fixing with photosensitive films, and the change trends of apoptosis-related proteins among different treatment groups were observed.

[13] = system: PARP; experiment: Apoptosis-related proteins by western blot, PARP in BEL-7402 cells; assay type: cell-based; details: BEL-7402 cells, 0, 50 and 100 nM, 24 h, FIG. 10 B
Method: as §7, §8, §9

[14] = system: Huh7 cells; experiment: Scratch test; assay type: cell-based; details: 50 nM, 24 and 48 h, serum-free medium; P<0.05; FIG. 11
Method: Huh7 cells in the logarithmic growth phase were taken and inoculated in a 24-well plate at 5×10^5 cells per well. After the cells were overgrown, a sterile pipette tip was used for scratching, the cells were washed 3 times with PBS after scratching, the scratched cells were removed, a serum-free medium containing 50 nM TPO was added to continue the culture for 24 and 48 h, and photographing was performed. The scratch photo was analyzed by Image J software, the scratch distance was calculated, and the scratch healing was evaluated.

triptolide triol [TP-3-OH, reference compound]
LDH activity of the culture supernatant of LO2 cells [1]: significantly lower than that of the TPL treatment group | inhibiting effect on proliferation [2]: no obvious inhibiting effect | inhibiting effect on proliferation [3]: no obvious inhibiting effect | inhibiting effect on proliferation [4]: no obvious inhibiting effect | inhibiting effect on proliferation [5]: no obvious inhibiting effect | proportion of Annexin V and PI positive cells (induction of apoptosis) [6]: not obvious | proportion of Annexin V and PI positive cells (induction of apoptosis) [7]: not obvious

C=CC(=O)O[C@@H]1[C@@]2(C(C)C)O[C@H]2[C@@H]2O[C@]23[C@]12O[C@H]2C[C@H]1C2=C(CC[C@@]13C)C(=O)OC2 [triptolide acrylate]
tumor volume (subcutaneous implanted tumor seen on skin surface) ([8]; administration group (especially the high-dose group) vs model group, dose-dependent, FIG. 5): significantly less than that of the model group | tumor volume of tumor tissues stripped after sacrifice ([8]; administration group vs model group, FIG. 6): less than that of the model group | fluorescence signals in the tumors of the nude mice ([8]; each dose group (100, 200, 400 μg/kg), intraperitoneal injection once a day for 13 days, compared with the model group, dose-dependent, FIG. 4): significantly weakened | fluorescence signal in the tumors of the nude mice ([8]; high-dose group (400 μg/kg), intraperitoneal injection once a day for 13 days, FIG. 4): weakened more obviously | protein expression quantity of p53 ([9]; high-dose group (400 μg/kg)): significantly increase | protein expression quantity of p53 ([9]; low-dose group (100 μg/kg)): no significant change | protein expression quantity of p53 ([9]; middle-dose group (200 μg/kg)): no significant change | protein expression quantity of caspase-8 ([10]; high-dose group (400 μg/kg)): reduce | protein expression quantity of caspase-8 ([10]; low-dose group (100 μg/kg)): reduce | protein expression quantity of caspase-8 ([10]; middle-dose group (200 μg/kg)): significantly increase | protein expression quantity of caspase-3 ([11]; high-dose group (400 μg/kg)): significantly increase | protein expression quantity of caspase-3 ([11]; low-dose group (100 μg/kg)): reduce | protein expression quantity of caspase-3 ([11]; middle-dose group (200 μg/kg)): significantly increase | LDH activity of the culture supernatant of LO2 cells [1]: significantly lower than that of the TPL treatment group | inhibiting effect on proliferation [2]: significant inhibiting effect | inhibiting effect on proliferation [3]: significant inhibiting effect | inhibiting effect on proliferation [4]: significant inhibiting effect | inhibiting effect on proliferation [5]: significant inhibiting effect | proportion of Annexin V and PI positive cells (induction of apoptosis) [6]: significantly increased | proportion of Annexin V and PI positive cells (induction of apoptosis) [7]: significantly increased | cleavage of Caspase-3 [12]: significantly increased | cleavage of PARP [13]: significantly increased | migration of Huh7 cells (scratch healing) [14]: significantly inhibit
